For assay [1], the system named is (CAG)9 (5'-biotinylated, immobilized) (RNA, repeat) CAGCAGCAGCAGCAGCAGCAGCAGCAG
The assay is described as follows: SPR single cycle kinetics. The conditions noted are these: 150 mM NaCl; 10 mM HEPES pH 7.4, 3 mM EDTA, 0.005% P20, 5% DMSO; 0.1-0.5 μM ligand.

Assay [2] has as its system GCAG(2′-SeCH3-C)AGC (RNA, mismatch bulge abasic, 2'-methylseleno cytidine at 5) GCAGCAGC
Put plainly: X-ray crystallography (SAD). The conditions noted are these: 5 mM MgCl2; TRIS pH 7.5, 30% PEG 400; RNA 0.75 mM, RNA:ligand 1:2 mixed.

In assay [3] the test system is (GCAGCAGC)2 (RNA, mismatch bulge abasic) GCAGCAGC
The assay is described as follows: X-ray crystallography. Particulars: RNA 0.75 mM, RNA:ligand 1:2 mixed.

In assay [4] the test system is (UCAACAGUUGA)2 (RNA, mismatch bulge abasic) UCAACAGUUGA
Put plainly: UV melting at 260 nm, median method. The conditions noted are these: 100 mM NaCl; 10 mM sodium cacodylate pH 7.0, 2% DMSO; RNA 5 μM, CMBL3a 20 μM.

In assay [5] the test system is (CGG)9 (5'-biotinylated, immobilized) (RNA, repeat) CGGCGGCGGCGGCGGCGGCGGCGGCGG
The assay is described as follows: SPR single cycle kinetics. Particulars: 150 mM NaCl; 10 mM HEPES pH 7.4, 3 mM EDTA, 0.005% P20, 5% DMSO; highest tested 0.5 μM.

The test system of assay [6] is (CAG)9 (RNA, repeat) CAGCAGCAGCAGCAGCAGCAGCAGCAG
Put plainly: CD titration at 347.5 nm. The conditions noted are these: 100 mM NaCl, 10 mM sodium cacodylate pH 7.0, ambient temperature, RNA 2.5 μM, 1:2 binding isotherm.

The subject of assay [7] is (CCG)9 (5'-biotinylated, immobilized) (RNA, repeat) CCGCCGCCGCCGCCGCCGCCGCCGCCG
Put plainly: SPR single cycle kinetics. Particulars: 150 mM NaCl; 10 mM HEPES pH 7.4, 3 mM EDTA, 0.005% P20, 5% DMSO; highest tested 0.5 μM.

What is called apparent Kd is a dissociation constant that holds for the conditions of the assay. In the case of `O=C1Nc2ccc3ccc(nc3n2)CNCc2ccc3ccc(nc3n2)NC(=O)OCC/C=C/CCO1`, the binding result in assay [1] is given as “yes”; in assay [2], “yes”; in assay [3] (10 mM MgCl2, 1 M Li2SO4, cacodylate pH 6.0), “yes”; in assay [4] it was “yes”; in assay [5], “no”; in assay [7] it was “no”. Also, the “apparent Kd” value in assay [6] came to 70.5 µM.

Take `O=C1Nc2ccc3ccc(nc3n2)CNCc2ccc3ccc(nc3n2)NC(=O)OCC/C=C\CCO1`: the binding entry in assay [3] (20 mM magnesium acetate, 1.7 M ammonium sulfate, cacodylate pH 6.0) was “yes”.

Take `O=C1Nc2ccc3ccc(nc3n2)CNCc2ccc3ccc(nc3n2)NC(=O)OCCCNCCCO1`: the binding result in assay [3] (2 mM MgCl2, 5 mM hexamine cobalt chloride, MOPS pH 7.0, Tacsimate) was “yes”.

The record behind these values is PMC6847237 (2019).
